# How the values were obtained:
# D189Q hMC4R [1] = target: T1, D189Q hMC4R (Homo sapiens, UniProt P32245, D189Q); assay: cAMP AlphaScreen agonist / inverse agonist assay; assay type: cell-based; details: for Inverse agonist percent decrease from basal activity: D189Q hMC4R
# D189Q hMC4R [2] = target: T1, D189Q hMC4R; assay: cAMP AlphaScreen antagonist assay; assay type: cell-based
# D189E hMC4R = D189E hMC4R (Homo sapiens, UniProt P32245, D189E); assay: cAMP AlphaScreen agonist / inverse agonist assay; assay type: cell-based; details: for Inverse agonist percent decrease from basal activity: D189E hMC4R
# D189E hMC4R, sequence (P32245 whole entry D189E): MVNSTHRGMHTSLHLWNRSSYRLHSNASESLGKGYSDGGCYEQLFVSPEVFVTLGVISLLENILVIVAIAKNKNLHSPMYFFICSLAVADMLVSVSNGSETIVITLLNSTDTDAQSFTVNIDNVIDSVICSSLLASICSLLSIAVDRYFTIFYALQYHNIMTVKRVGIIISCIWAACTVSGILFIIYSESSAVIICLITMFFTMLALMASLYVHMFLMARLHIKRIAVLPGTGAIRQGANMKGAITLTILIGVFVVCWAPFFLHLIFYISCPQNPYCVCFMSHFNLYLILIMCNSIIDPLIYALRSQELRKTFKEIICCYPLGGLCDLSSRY
# D189K hMC4R [3] = target: T2, D189K hMC4R (Homo sapiens, UniProt P32245, D189K); assay: cAMP AlphaScreen antagonist assay; assay type: cell-based
# T2 sequence (P32245 whole entry D189K): as the sequence (P32245 whole entry D189E) above, with E189K counted along it
# D189A hMC4R [4] = target: T3, D189A hMC4R (Homo sapiens, UniProt P32245, D189A); assay: cAMP AlphaScreen antagonist assay; assay type: cell-based
# T3 sequence (P32245 whole entry D189A): as the sequence (P32245 whole entry D189E) above, with E189A counted along it
# D189S hMC4R [5] = target: T4, D189S hMC4R (Homo sapiens, UniProt P32245, D189S); assay: cAMP AlphaScreen agonist / inverse agonist assay; assay type: cell-based; details: D189S hMC4R
# T4 sequence (P32245 whole entry D189S): as the sequence (P32245 whole entry D189E) above, with E189S counted along it
# wildtype hMC4R = wildtype hMC4R (Homo sapiens, UniProt P32245); assay: cAMP AlphaScreen agonist / inverse agonist assay; assay type: cell-based; details: WT hMC4R, basal = signal at 10^−12 M
# wildtype hMC4R, sequence (P32245 whole entry): as the sequence (P32245 whole entry D189E) above, with E189D counted along it
# D189N hMC4R [6] = target: T5, D189N hMC4R (Homo sapiens, UniProt P32245, D189N); assay: cAMP AlphaScreen antagonist assay; assay type: cell-based
# T5 sequence (P32245 whole entry D189N): as the sequence (P32245 whole entry D189E) above, with E189N counted along it
# D189N hMC4R [7] = target: T5, D189N hMC4R; assay: cAMP AlphaScreen agonist / inverse agonist assay; assay type: cell-based; details: D189N hMC4R
# D189K hMC4R [8] = target: T2, D189K hMC4R; assay: cAMP AlphaScreen agonist / inverse agonist assay; assay type: cell-based
# D189K hMC4R [9] = target: T2, D189K hMC4R
# D189A hMC4R [10] = target: T3, D189A hMC4R; assay: cAMP AlphaScreen agonist / inverse agonist assay; assay type: cell-based
# D189S hMC4R [11] = target: T4, D189S hMC4R; assay: cAMP AlphaScreen antagonist assay; assay type: cell-based; details: Schild analysis, agonist NDP-MSH
# T1 sequence (P32245 whole entry D189Q): as the sequence (P32245 whole entry D189E) above, with E189Q counted along it
Inverse agonist percent decrease from basal activity (D189N hMC4R [7]),Inverse agonist activity (D189K hMC4R [8]),Decreased I125-AGRP binding affinity versus wildtype (D189K hMC4R [9]) [fold],Inverse agonist activity (D189A hMC4R [10]),Antagonist pA2 (D189S hMC4R [11]),Inverse agonist percent decrease from basal signal (wildtype hMC4R; listed as AGRP) [%],Compound,EC50 (D189Q hMC4R [1]) [µM],Inverse agonist percent decrease from basal activity (D189Q hMC4R [1]),Kb (D189Q hMC4R [2]) [µM],EC50 (D189E hMC4R) [µM],Inverse agonist percent decrease from basal activity (D189E hMC4R),Kb (D189K hMC4R [3]) [µM],Kb (D189A hMC4R [4]) [µM],Inverse agonist percent decrease from basal activity (D189S hMC4R [5]),Inverse agonist percent decrease from basal signal (wildtype hMC4R),Kb (D189N hMC4R [6]) [µM]
–,–,–,–,–,–,"C[C@@H]1NC(=O)[C@H](CC(=O)O)NC(=O)[C@H](Cc2ccccc2)NC(=O)[C@H](Cc2ccccc2)NC(=O)[C@H](CCCNC(=N)N)NC(=O)[C@@H]2CCCN2C(=O)[C@H]2CCCN2C(=O)[C@H](Cc2ccccc2)NC1=O [MDE3–119-4c, c[Pro-Arg-Phe-Phe-Asp-Ala-Phe-DPro]]",7,−45%,1.58,3,−40%,> 3.16,> 3.16,−15%,−35%,0.398
30±10 (−10%),no apparent inverse agonist activity,10,no apparent inverse agonist activity,8.2±0.2,35,"agouti-related protein (AGRP86–132) [hAGRP(86–132), reference compound]",–,17±5 (−35%),–,–,4.4±0.1 (−35%),–,–,20±10 (−20%),2.4±0.5 (−35%),–
